Assay: Low temperature (cold storage) stability testing, CIPAC Method 39.3 (1999)
Type: physicochemical
Conditions: for cold temperature stability at 0° C.: 750 g/L Dicamba (based on acid equivalent); for cold storage / low temperature stability at 0° C.: Dicamba 800 g/L acid equivalent
Method: Compositions described in the Examples were examined by the CIPAC Method 39.3 (1999) the procedure of which is noted below.
Transfer 100±1.0 ml of the formulation to the tube and insert the stopper. Cool to 0±2° C. in the refrigerator (Note 2). If the sample contains a dissolved crystalline pesticide, remove the tube from the refrigerator after 24 hours, take off the stopper, add a small crystal of the pure or technical pesticide (Note 3) and replace the stopper. Replace the tube in the refrigerator and allow it to remain at 0±2° C. for a total period of 7 days (Note 4).
At the end of this time, note the volume and nature of any separated material. If the liquid phase is not homogeneous, note the volume of each layer. If there is any separated material, then allow the tube to reach room temperature over a period of 24 hours (Note 5), invert once and again note the volume and nature of any separated material. • Note 1 A domestic refrigerator is often unsuitable because the on/off cycle may cover a range larger than 4° C. • Note 2 Alternatively a graduated emulsion tube meeting BS 658 class B, type 1 (Crow Receiver) may be used. • Note 3 A crystal from the commercial manufacturing process is preferred. Alternatively a crystal separated from the formulation e.g. by distillation of the solvent may be used. • Note 4 Other temperature-storage period combinations may be specified. • Note 5 Room temperature being defined as 23±2° C. Note any temperature outside this range.
Low temperature stability testing was carried out in accordance with the Standard CIPAC Method 39.3 (1999) and the resulting percentage crystallisation is reported in Table 3.

SMILES | cold temperature stability at 0° C. | cold storage / low temperature stability at 0° C.
CN.COc1c(Cl)ccc(Cl)c1C(=O)O [MMA salt] | not stable | Neither of the individual DMA or MMA salts were stable
CNC.COc1c(Cl)ccc(Cl)c1C(=O)O [DMA salt] | not stable | Neither of the individual DMA or MMA salts were stable

Source: patent publication US8871683B2, “Dicamba herbicide composition” (Nufarm Australia Limited, priority 2008, dated 2014)
